Each structure is given as a SMILES string. Calls of active or inactive are those of the source. Cut-off read from the data, not from the text of the source, for most assays here: actives have a measured EC50 and inactives only a lower limit.

Assay [1] has as its target T1, Heat shock factor protein 1 (Mus musculus, UniProt P38532).
T1 sequence (P38532 whole entry): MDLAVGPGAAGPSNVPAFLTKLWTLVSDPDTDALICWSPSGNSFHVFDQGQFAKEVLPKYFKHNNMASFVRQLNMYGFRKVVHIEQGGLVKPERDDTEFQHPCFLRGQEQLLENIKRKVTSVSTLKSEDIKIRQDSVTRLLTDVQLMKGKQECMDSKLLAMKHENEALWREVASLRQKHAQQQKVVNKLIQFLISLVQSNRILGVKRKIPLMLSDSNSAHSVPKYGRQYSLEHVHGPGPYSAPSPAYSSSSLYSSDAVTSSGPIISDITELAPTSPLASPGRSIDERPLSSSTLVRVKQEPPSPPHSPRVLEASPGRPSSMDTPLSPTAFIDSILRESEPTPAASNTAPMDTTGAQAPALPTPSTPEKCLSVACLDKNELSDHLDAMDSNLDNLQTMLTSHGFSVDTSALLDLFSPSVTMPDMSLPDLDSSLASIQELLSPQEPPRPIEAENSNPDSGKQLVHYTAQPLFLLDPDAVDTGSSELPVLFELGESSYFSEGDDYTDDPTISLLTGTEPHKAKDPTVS
In words: inhibition of MG132-induced HSE-luciferase signal, confirmation, cell-based, NIH3T3, luminescence, dose retest (AID 2382).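 Note: NIH3T3 fibroblasts with HSF1-driven luciferase reporter stressed by proteasome inhibitor MG132; luminescence from HSF1-driven luciferase expression after 8 hours of MG132 stress.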 The class given is functional.

A further assay has as its target T2, Streptokinase A (Streptococcus pyogenes serotype M1, UniProt P10520).
T2 sequence (P10520 whole entry): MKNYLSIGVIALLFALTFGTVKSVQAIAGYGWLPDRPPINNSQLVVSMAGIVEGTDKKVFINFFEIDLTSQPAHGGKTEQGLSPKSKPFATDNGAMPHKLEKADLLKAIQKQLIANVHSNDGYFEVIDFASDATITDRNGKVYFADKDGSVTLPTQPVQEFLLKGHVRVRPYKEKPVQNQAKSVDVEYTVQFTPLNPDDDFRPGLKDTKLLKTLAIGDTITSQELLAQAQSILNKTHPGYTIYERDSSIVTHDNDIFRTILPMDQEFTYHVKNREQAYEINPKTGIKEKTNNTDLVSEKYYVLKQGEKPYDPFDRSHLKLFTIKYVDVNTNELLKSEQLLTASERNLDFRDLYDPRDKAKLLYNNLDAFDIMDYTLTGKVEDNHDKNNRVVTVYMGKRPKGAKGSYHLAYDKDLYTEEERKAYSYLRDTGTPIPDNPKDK
In words: S. pyogenes streptokinase expression inhibitors, potency, dose response, plasminogen activation absorbance, OD405 (AID 1914).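 Note: secreted streptokinase activity via plasminogen activation per viability signal from cell pellet.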 It counts as functional, Streptococcus pyogenes M1 GAS.

Assay [2] relates to Streptococcus sp. 'group A'. The assay can be described thus: growth inhibition of control SK(-) GAS strain, dose response, counter-screen for streptokinase expression inhibitor project, luminescence, kanamycin, BacTiterGlo, confirmation (AID 1900). The class given is functional, organism-based.
The subject of a further assay is Streptococcus. In words: Group A Streptococcus viability loss, dose response, counter-screen for streptokinase expression inhibitor project, luminescence, BacTiterGlo (AID 1915).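 Note: potency for reduction of bacterial viability or growth.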 It counts as functional, organism-based.
The next assay has as its target T3, Cytochrome P450 1A2 (Homo sapiens, UniProt P05177).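 Note: PubChem cytochrome P450 panel assay, CYP1A2 panel member.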
T3 sequence (P05177 whole entry): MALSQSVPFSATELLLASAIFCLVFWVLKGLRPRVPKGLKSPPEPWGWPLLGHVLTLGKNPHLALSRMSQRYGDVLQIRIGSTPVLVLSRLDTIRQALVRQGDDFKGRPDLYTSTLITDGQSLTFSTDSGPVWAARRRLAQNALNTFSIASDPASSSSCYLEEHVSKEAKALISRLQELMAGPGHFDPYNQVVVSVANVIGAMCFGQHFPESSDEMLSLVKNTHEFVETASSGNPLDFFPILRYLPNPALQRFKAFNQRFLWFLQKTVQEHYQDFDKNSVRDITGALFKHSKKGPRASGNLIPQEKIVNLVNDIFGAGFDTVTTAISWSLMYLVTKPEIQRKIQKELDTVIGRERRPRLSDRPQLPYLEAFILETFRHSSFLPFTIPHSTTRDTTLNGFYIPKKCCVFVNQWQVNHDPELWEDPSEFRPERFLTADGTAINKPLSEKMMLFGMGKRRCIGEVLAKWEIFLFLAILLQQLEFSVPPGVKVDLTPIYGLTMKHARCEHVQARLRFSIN

The target in a further assay is Cytochrome P450 3A4 (Homo sapiens, UniProt P08684).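 Note: CYP3A4 tested as one member of a cytochrome P450 panel screen.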
Assay [3] in a line: cytotoxicity toward NIH3T3 fibroblasts, dose response, counter-screen, cell-based, ATP luminescence, mouse fibroblasts (AID 2010).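 Note: cells exposed to compound for about 90 hours before reading.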 The class given is functional. In general terms: A counterscreen serves to expose hits that act by an unwanted route or on another target.
Assay [4] is described as follows: inhibitors of intracellular T. cruzi replication, confirmation, NIH3T3 host cells, beta-gal luminescence (AID 2044).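 Note: intracellular parasites grown in NIH/3T3 mouse fibroblasts as host cells; luminescent beta-galactosidase reporter signal from transgenic T. cruzi replicating inside host cells; inhibitors lower the luminescence signal.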 It counts as functional, cell-based.
Assay [5] has as its target T4, Corticotropin-releasing factor receptor 2/Corticotropin-releasing factor-binding protein (Homo sapiens, UniProt P24387+Q13324).
T4 sequence (Q13324 whole entry): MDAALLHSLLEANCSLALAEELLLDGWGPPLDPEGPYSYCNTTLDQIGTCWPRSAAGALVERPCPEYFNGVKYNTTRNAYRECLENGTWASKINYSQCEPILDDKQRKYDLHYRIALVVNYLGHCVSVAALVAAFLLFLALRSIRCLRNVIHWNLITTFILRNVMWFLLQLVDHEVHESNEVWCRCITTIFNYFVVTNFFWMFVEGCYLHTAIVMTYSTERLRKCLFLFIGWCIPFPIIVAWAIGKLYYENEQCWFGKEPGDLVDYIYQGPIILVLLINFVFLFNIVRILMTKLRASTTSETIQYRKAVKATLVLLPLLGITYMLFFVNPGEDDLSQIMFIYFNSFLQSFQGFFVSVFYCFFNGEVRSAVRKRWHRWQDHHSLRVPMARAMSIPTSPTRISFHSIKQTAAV
T4 sequence (P24387 whole entry): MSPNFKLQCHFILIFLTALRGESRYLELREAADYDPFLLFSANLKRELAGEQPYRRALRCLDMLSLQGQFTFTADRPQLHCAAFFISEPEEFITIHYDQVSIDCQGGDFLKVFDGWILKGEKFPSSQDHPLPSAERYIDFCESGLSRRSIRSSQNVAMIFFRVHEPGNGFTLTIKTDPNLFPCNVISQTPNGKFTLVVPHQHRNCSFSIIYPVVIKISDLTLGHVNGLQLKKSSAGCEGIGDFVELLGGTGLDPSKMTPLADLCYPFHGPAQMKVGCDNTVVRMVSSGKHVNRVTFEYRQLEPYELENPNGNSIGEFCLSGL
The assay can be described thus: activators of CRF receptor 2 with binding protein – uHTS hits, confirmation (AID 602473). It counts as functional. The settings on record: read-out: EC50_Mean.

The nature of assay [6]: Luminescence Cell-Based Dose Response HTS to Identify Inhibitors of 5'UTR Stem-Loop Driven Prion Protein mRNA Translation in H4 Neuroglioblastoma Cells. [Related pubchem assays: 1827 (Project Summary), 1813 (Primary HTS)]. It counts as functional.
A short description of assay [7]: inhibitors of SNCA 5'UTR-driven reporter translation, confirmation, H4 neuroglioma cells, luminescence (AID 1988). The class given is functional, cell-based.
Assay [8] is described as follows: inhibitors of firefly luciferase expression or activity, dose response, H4 neuroglioma cells, luminescence (AID 1990). It counts as functional, cell-based.
Assay [9] is described as follows: Luminescence Cell-Based Dose Retest to Confirm Inhibitors of Cancer Stem Cells. [Related pubchem assays (depositor defined):AID2717, AID2721]. The class given is functional. The conditions noted are these: Homo sapiens.

Chain of Cytochrome P450 3A4 (P08684 whole entry): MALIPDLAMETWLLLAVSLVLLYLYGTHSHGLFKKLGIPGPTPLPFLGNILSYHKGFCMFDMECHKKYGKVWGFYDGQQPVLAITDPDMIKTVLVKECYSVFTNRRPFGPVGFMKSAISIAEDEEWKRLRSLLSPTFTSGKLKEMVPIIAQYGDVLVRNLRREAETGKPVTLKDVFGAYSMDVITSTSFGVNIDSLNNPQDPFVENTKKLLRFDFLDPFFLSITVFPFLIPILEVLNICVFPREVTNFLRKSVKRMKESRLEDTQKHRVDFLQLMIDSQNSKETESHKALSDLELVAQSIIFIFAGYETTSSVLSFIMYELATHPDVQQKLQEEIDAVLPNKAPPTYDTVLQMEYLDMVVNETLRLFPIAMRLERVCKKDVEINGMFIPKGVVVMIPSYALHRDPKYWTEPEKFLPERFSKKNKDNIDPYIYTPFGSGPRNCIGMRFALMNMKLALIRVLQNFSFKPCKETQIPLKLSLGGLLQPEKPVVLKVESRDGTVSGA

Consider `Cc1cc(C)nc(-n2c(C)nc3cc(Cl)ccc3c2=O)c1`, for which, in assay [1], the EC50 is 35.9 µM (active).

Regarding `COC(=O)c1cccc(NC(=S)NCc2ccc(Cl)cc2)c1`, the EC50 on Streptokinase A is > 150 µM (not active).

For `O=C(Nc1cccc2ncccc12)C(Cl)(Cl)Cl`, in assay [1], the EC50 is listed as > 195 µM (not active).

For the compound `S=C(NCc1ccco1)N1CCN(c2nc(-c3ccc(Cl)cc3)cs2)CC1`, the EC50 in [2] is 9.38 µM (active); at Streptokinase A it was 36.4 µM (active); in the assay on Streptococcus it was 32.1 µM (active).

As a reminder, the AC50 is the concentration giving half of the maximal activity seen. As for `CSc1cccc(NC(=O)OC2CCCCCCCCCCC2)c1`, the EC50 was 4.09 µM (active) in [2], 2.93 µM (active) on Streptokinase A and 10.8 µM (active) in the assay with Streptococcus. Also, the AC50 was 5.01 µM (inconclusive) at Cytochrome P450 1A2 and 3.16 µM (inconclusive) at Cytochrome P450 3A4.

`SC1=NC[C@H](CC2CCCCC2)N1CC1CCCCC1`: the EC50 in assay [2] is 12.6 µM (active); on Streptokinase A, 25.4 µM (active); in the assay with Streptococcus it was 19.6 µM (active).

With `O=C(NCCCN1CCCC1=O)c1cccc(N2CCCC2=O)c1`, the EC50 in assay [1] was > 195 µM (not active).

With `CCSc1nnc(-c2ccc(S(=O)(=O)NCc3cccs3)cc2)o1`, in [1], the EC50 is given as > 195 µM (not active).

Take `Cc1cc(NC(=O)COc2coc(CN3CCN(c4ccccc4F)CC3)cc2=O)no1`: the EC50 in assay [1] is on record as > 195 µM (not active).

Turning to `COc1ccc(C(=O)CSc2nc(-c3ccccn3)nc(C)c2Cl)cc1`, the values for the EC50 (in assay [2]; on Streptokinase A; in the assay with Streptococcus) were 7.92 µM (active), > 150 µM (not active) and 36.4 µM (active), respectively.

As to `Cc1cccc(NC(=S)/N=C(\N)Nc2nc(C)c3ccc(C)cc3n2)c1`, the EC50 in [2] was 77.2 µM (active); in [3] it was > 60 µM (not active); at Streptokinase A, > 150 µM (inconclusive); in the assay on Streptococcus, > 150 µM (not active); in assay [4], 2.12 µM (active).

In the case of `N#CCc1nn(-c2ccccc2)c2ncnc(N)c12`, the EC50 in assay [1] is 30.8 µM (active).

`COc1ccccc1OCC(=O)NNC(=S)NC(=O)c1ccco1`: the values for the EC50 (in [2]; at Streptokinase A; in the assay on Streptococcus) were 2.81 µM (active), > 150 µM (not active) and 41.4 µM (active), respectively.

As for `O=C(CC1CCCCC1)c1c(O)c2ccccc2oc1=O`, the EC50 in [2] was 3.42 µM (active); on Streptokinase A, > 150 µM (not active); with Streptococcus, 55 µM (active); in [5], 7.06 µM (active).

`Cc1ccc(-c2ccnc3c(Cl)c(C)nn23)cc1`: the values for the EC50 in assay [6], in assay [7] and in [8] were > 120 µM (not active), 13.7 µM (active) and > 120 µM (not active), respectively.

As to `Cn1nc(-c2ccccc2)c(CSc2cccc(Cl)c2)c1Cl`, the EC50 on Streptokinase A is 19.8 µM (active); in the assay on Streptococcus it was > 150 µM (not active).

For `Fc1ccccc1CNc1cc(Cl)cc(Cl)c1`, the values for the EC50 (in assay [2]; on Streptokinase A; with Streptococcus) were 9.65 µM (active), > 150 µM (not active) and 17.8 µM (active), respectively.

Consider `O=S1(=O)N[C@H](c2ccccc2)C[C@H](c2ccc(C(F)(F)F)cc2)O1`, for which, in assay [1], the EC50 is > 195 µM (not active).

For `CC1Cc2cc(C(=O)C3=C(O)C(=O)N(CC4CCCO4)C3c3ccco3)ccc2O1` (stereo not drawn), in [1], the EC50 is 69.9 µM (active).

Turning to `CCOC(=O)c1c(C)[nH]c(C(=O)Cn2c(=O)c3c(ncn3CC)n(Cc3ccccc3)c2=O)c1C`, the EC50 in [6] is > 120 µM (not active); in assay [7], 17.2 µM (active); in assay [8], > 120 µM (not active).

`COc1ccc([C@H]2Oc3cc(O)cc(O)c3C(=O)C2[C@@H]2C(=O)c3c(O)cc(O)cc3O[C@@H]2c2ccc(OC)cc2)cc1` (stereo partly drawn): the EC50 in assay [2] is 2.34 µM (active); on Streptokinase A, 1.7 µM (active); in the assay on Streptococcus it was 2.42 µM (active). Moreover, the AC50 in assay [9] is 7.4 µM (active).

For `CCC1Sc2ccc(S(=O)(=O)Nc3ccc(OC)cc3)cc2NC1=O` (stereo not drawn), the EC50 in [1] is > 195 µM (not active).

In the case of `O=C(Nc1cccnc1)c1coc(=O)c2ccccc12`, the EC50 in assay [1] is reported as > 195 µM (not active).

As to `CCOC(=O)c1ccc(NC(=O)N2CCN(S(C)(=O)=O)CC2)cc1`, the EC50 in assay [1] is > 195 µM (not active).

In the case of `N#C/C(=C\c1c[nH]c2ccc(Br)cc12)c1ccccn1`, the EC50 was 18.7 µM (active) in [2], 51.6 µM (active) at Streptokinase A and > 150 µM (not active) in the assay on Streptococcus. In assay [9], the AC50 was 2.25 µM (active).

For `COc1ccc(Cl)cc1C(=O)NCC(=O)OCc1ccccc1`, the EC50 in [1] is given as > 195 µM (not active).

As to `O=C(NC1CCCCC1)NC1C2CC3CC(C2)CC1C3` (stereo not drawn), the EC50 (in assay [2]; at Streptokinase A; in the assay with Streptococcus) was > 150 µM (not active) in each case.

Turning to `CC/N=C1/S/C(=C\c2cn(CC(=O)NCc3ccco3)c3ccccc23)C(=O)N1CC`, the EC50 in assay [6] was 14.8 µM (active); in [7], 13.9 µM (active); in assay [8], 11.1 µM (active).

For the compound `CN(C)c1ccc(/C=N\Nc2nc(O)cc(-c3ccccc3)n2)cc1`, the EC50 in [1] is recorded as > 195 µM (not active).

As to `C/N=C1\S/C(=C\c2ccc(N3CCOCC3)c(F)c2)C(=O)N1C`, the EC50 was 5.33 µM (active) in [2], > 150 µM (not active) at Streptokinase A and 12.2 µM (active) in the assay on Streptococcus.

(Values after ChEMBL document CHEMBL1201862, “PubChem BioAssay data set” (2004).)
